Experimental data from PMC3961306, “Comparison of the Cancer Gene Targeting and Biochemical Selectivities of All Targeted Kinase Inhibitors Approved for Clinical Use” (PLoS ONE, 2014).

Columns and labels:
Assay in all cases: Kinase profiling in a biochemical assay panel (mobility shift assays and ELISA), %-inhibition at 1 μM; selectivity entropy
[1] = target: T1, panel of more than 300 wild-type and mutant kinases (313 kinase panel) (Homo sapiens, UniProt O15111)
T1 sequence (O15111 1-745): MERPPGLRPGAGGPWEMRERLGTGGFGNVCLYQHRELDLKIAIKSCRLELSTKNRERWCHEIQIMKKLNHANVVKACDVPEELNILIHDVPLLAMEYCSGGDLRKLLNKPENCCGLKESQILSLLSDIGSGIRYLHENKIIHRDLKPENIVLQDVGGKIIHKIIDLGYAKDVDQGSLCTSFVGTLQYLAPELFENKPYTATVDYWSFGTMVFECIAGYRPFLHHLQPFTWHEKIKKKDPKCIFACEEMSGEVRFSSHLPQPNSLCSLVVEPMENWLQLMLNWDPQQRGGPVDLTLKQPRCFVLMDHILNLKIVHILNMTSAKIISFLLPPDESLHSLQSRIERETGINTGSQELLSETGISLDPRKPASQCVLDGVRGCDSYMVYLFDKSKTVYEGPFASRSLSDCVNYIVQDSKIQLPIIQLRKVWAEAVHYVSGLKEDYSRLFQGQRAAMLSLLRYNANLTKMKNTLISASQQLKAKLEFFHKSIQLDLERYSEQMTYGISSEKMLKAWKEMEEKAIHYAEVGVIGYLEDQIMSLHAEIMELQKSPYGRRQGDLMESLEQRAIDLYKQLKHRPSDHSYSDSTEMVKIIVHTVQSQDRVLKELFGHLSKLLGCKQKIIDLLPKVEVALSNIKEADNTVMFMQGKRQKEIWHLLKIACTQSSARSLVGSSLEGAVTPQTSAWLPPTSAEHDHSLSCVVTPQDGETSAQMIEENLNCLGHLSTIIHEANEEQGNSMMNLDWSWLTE

[2] = target: panel of more than 300 wild-type and mutant kinases (313 kinase panel) (Homo sapiens, UniProt P10721, V654A)
[3] = target: panel of more than 300 wild-type and mutant kinases (313 kinase panel) (Homo sapiens, UniProt Q15303)
[4] = target: T2, panel of more than 300 wild-type and mutant kinases (313 kinase panel) (Homo sapiens, UniProt P45985)
T2 sequence (P45985 1-399): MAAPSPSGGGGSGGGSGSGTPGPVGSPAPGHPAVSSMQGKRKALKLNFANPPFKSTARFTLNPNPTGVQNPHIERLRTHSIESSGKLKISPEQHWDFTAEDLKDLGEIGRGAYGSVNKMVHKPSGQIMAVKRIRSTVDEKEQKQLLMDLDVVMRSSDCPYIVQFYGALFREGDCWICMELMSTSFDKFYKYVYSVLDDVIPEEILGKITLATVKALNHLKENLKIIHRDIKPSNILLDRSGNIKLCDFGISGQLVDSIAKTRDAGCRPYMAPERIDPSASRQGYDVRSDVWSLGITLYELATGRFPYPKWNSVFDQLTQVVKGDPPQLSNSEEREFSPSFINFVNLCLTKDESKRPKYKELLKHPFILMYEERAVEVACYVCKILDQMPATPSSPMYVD

[5] = target: panel of more than 300 wild-type and mutant kinases (313 kinase panel) (Homo sapiens, UniProt O96017)
[6] = target: T3, panel of more than 300 wild-type and mutant kinases (313 kinase panel) (Homo sapiens, UniProt Q06418)
T3 sequence (Q06418 41-890): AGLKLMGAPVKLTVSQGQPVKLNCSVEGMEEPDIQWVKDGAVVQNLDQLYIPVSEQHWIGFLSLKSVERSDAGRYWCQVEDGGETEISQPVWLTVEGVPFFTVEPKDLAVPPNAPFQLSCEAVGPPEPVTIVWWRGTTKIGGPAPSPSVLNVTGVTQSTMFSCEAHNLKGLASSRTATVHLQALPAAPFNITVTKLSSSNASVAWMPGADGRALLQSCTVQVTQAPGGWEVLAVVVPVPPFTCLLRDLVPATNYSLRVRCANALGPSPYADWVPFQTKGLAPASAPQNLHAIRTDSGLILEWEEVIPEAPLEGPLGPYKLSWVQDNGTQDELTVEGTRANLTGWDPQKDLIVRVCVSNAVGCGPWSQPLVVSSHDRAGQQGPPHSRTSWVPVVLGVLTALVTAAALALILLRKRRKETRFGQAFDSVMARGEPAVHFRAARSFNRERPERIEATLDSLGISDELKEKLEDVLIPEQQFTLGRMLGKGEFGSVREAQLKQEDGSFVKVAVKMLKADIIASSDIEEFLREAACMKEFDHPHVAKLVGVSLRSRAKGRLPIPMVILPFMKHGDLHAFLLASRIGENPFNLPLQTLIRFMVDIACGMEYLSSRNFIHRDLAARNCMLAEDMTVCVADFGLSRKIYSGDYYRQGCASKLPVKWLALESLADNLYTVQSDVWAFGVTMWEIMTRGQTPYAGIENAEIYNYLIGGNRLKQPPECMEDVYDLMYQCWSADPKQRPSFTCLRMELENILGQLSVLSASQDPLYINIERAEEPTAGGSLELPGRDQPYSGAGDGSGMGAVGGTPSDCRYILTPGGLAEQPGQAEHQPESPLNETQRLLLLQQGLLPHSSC

[7] = kinase KIT(V654A), compound at 1 μM
[8] = kinase MAP2K4, compound at 1 μM

panel of more than 300 wild-type and mutant kinases (313 kinase panel) (Homo sapiens, UniProt Q15303), sequence (Q15303 26-1308, change not shown): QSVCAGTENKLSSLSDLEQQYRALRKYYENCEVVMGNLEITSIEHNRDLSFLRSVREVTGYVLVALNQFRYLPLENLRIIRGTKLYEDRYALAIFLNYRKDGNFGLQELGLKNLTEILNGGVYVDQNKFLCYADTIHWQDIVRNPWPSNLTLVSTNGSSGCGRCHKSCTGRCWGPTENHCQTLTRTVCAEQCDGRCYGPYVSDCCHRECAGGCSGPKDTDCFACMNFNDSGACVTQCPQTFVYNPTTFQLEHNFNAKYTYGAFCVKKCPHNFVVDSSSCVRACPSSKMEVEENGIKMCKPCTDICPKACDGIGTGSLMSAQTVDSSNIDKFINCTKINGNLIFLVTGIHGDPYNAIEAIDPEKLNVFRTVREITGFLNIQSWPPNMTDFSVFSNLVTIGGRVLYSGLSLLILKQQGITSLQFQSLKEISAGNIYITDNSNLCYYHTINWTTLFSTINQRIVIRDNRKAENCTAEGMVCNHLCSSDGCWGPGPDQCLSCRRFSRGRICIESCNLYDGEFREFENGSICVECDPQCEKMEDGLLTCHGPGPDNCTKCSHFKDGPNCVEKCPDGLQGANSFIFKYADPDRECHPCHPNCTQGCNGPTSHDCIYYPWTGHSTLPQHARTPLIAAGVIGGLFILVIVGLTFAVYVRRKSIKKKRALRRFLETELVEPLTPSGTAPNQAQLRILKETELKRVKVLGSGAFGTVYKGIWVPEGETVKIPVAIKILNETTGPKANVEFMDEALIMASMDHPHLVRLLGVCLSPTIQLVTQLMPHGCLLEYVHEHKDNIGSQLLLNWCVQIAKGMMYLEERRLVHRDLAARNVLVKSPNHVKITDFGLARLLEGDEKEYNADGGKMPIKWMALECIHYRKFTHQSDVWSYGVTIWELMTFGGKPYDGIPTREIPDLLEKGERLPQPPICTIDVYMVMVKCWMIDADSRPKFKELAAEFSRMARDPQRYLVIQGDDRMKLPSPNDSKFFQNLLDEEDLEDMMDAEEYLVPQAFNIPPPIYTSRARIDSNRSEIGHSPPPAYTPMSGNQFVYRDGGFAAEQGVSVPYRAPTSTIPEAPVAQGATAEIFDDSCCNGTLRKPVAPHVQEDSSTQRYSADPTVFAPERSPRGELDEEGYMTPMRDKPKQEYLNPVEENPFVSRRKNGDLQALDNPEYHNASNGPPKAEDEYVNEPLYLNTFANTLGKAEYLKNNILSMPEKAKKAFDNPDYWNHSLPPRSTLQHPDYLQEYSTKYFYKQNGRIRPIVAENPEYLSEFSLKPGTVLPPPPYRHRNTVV
panel of more than 300 wild-type and mutant kinases (313 kinase panel) (Homo sapiens, UniProt P10721, V654A), sequence (P10721 26-976 V654A): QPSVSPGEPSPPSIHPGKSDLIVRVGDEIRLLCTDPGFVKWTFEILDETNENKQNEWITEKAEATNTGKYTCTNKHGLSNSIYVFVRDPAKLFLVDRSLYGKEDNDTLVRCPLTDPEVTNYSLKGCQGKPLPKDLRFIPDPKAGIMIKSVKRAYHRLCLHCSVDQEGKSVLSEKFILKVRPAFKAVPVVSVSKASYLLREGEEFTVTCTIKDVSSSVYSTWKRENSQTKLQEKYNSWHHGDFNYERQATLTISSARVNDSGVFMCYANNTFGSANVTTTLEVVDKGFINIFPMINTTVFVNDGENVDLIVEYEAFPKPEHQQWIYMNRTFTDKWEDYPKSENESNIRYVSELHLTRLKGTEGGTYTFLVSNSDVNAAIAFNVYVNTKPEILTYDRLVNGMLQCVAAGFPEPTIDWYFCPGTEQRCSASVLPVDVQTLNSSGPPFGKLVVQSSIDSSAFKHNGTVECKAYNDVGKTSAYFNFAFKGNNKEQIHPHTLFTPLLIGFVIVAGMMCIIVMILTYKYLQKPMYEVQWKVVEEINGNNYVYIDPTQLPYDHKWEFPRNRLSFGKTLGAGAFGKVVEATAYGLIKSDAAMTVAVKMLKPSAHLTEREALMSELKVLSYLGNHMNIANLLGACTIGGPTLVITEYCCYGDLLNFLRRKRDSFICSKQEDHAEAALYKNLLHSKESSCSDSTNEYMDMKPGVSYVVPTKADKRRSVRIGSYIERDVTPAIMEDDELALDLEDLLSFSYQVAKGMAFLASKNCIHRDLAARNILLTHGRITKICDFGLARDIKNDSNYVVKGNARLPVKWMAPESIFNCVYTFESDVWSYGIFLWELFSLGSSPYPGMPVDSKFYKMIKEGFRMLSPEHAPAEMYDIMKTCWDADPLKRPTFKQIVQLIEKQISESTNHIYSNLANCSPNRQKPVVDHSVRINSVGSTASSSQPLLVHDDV

SMILES | %-inhibition of IKKα ([1]; kinase IKKα, compound at 1 μM) [%] | %-inhibition of KIT(V654A) [2, 7] [%] | %-inhibition of HER4 ([3]; kinase HER4, compound at 1 μM) [%] | %-inhibition of MAP2K4 [4, 8] [%] | %-inhibition, CHK2 ([5]; kinase CHK2, 1 μM compound) [%] | %-inhibition of MAP2K4 ([4]; 1 µM) [%] | %-inhibition of IKKα ([1]; 1 µM) [%] | %-inhibition of TYRO3 ([6]; 1 µM) [%] | %-inhibition of KIT(V654A) ([2]; 1 µM) [%] | %-inhibition, CHK2 ([5]; 1 µM) [%] | %-inhibition of HER4 ([3]; 1 µM) [%] | %-inhibition of TYRO3 ([6]; kinase TYRO3, compound at 1 μM) [%]
COc1cc(Nc2c(C#N)cnc3cc(OCCCN4CCN(C)CC4)c(OC)cc23)c(Cl)cc1Cl [bosutinib] | 1.66 | 8 | 102 | – | – | – | – | – | – | – | – | –
COc1cc2nccc(Oc3ccc(NC(=O)C4(C(=O)Nc5ccc(F)cc5)CC4)cc3)c2cc1OC [cabozantinib] | -1.89 | 97 | 23 | -0.379 | 65 | – | – | – | – | – | – | –
C[C@@H](Oc1cc(-c2cnn(C3CCNCC3)c2)cnc1N)c1c(Cl)ccc(F)c1Cl [crizotinib] | -1.78 | -3.75 | -18 | -1.24 | 9 | – | – | – | – | – | – | –
CC(C)(C)c1nc(-c2cccc(NS(=O)(=O)c3c(F)cccc3F)c2F)c(-c2ccnc(N)n2)s1 [dabrafenib] | – | -3.17 | 23 | -3 | 7 | – | – | – | – | – | – | –
Cc1nc(Nc2ncc(C(=O)Nc3c(C)cccc3Cl)s2)cc(N2CCN(CCO)CC2)n1 [dasatinib] | – | – | 103 | -3.71 | – | – | – | – | – | – | – | –
C#Cc1cccc(Nc2ncnc3cc(OCCOC)c(OCCOC)cc23)c1 [erlotinib] | – | – | – | – | – | -6 | -5 | 20 | 1.65 | 10 | 97 | –
CO[C@H]1C[C@@H]2CC[C@@H](C)[C@@](O)(O2)C(=O)C(=O)N2CCCC[C@H]2C(=O)O[C@H]([C@H](C)C[C@@H]2CC[C@@H](OCCO)[C@H](OC)C2)CC(=O)[C@H](C)/C=C(\C)[C@@H](O)[C@@H](OC)C(=O)[C@H](C)C[C@H](C)/C=C/C=C/C=C/1C [everolimus] | -3.22 | -3.52 | -7 | 1.55 | -37 | – | – | – | – | – | – | -2.32
O=S(=O)(c1cccc2cnccc12)N1CCCNCC1 [fasudil] | 8 | -4 | -0.227 | -5 | 4 | – | – | – | – | – | – | -1.23
CS(=O)(=O)CCNCc1ccc(-c2ccc3ncnc(Nc4ccc(OCc5cccc(F)c5)c(Cl)c4)c3c2)o1 [lapatinib] | -9 | – | – | 0.409 | 12 | – | – | – | – | – | 102 | 13
